“And” between values parts separate entries of the source, which are not always exact repeats. Identical values can stand only once. Toxic doses and inconclusive results are not listed. Rule as the data show it: active = T/C of 150% or more; inactive = T/C below 125%.
Test system: L1210 leukemia ip in BDF1 mice, survival T/C
Experiment: NCI In Vivo Anticancer Drug Screen. Data for tumor model L1210 Leukemia (intraperitoneal) in B6D2F1 (BDF1) mice
Conditions: endpoint: mean survival time, higher = longer survival
Outline: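 Ratio derived from survival: compound-dosed mice over vehicle-dosed mice, all bearing a transplantable tumor.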

[1] = dose: 100.0 mg/kg/injection, schedule: Q01DX001 (ip), vehicle: saline
[2] = dose: 25.0 mg/kg/injection, schedule: Q01DX009 (ip), vehicle: Klucel (hydroxypropylcellulose) (HPC)
[3] = dose: 50.0 mg/kg/injection, schedule: Q01DX009 (ip), vehicle: Klucel (hydroxypropylcellulose) (HPC)
[4] = dose: 100.0 mg/kg/injection, schedule: Q01DX009 (ip), vehicle: Klucel (hydroxypropylcellulose) (HPC)
[5] = dose: 100.0 mg/kg/injection, schedule: Q04DX002 (ip), vehicle: Klucel (hydroxypropylcellulose) (HPC)
[6] = dose: 100.0 mg/kg/injection, schedule: Q04DX003 (ip), vehicle: saline

Measured: T/C

C[C@]12C[C@H](O)[C@H]3[C@@H](CCC4=CC(=O)CC[C@@]43C)[C@@H]1CC[C@@H]2C(=O)CO
inactive: dose: 25.0 mg/kg/injection, schedule: Q01DX009 (sc), vehicle: steriod suspending solution 101 % of control | dose: 25.0 mg/kg/injection, schedule: Q01DX010 (sc), vehicle: steriod suspending solution 102 % of control | dose: 50.0 mg/kg/injection, schedule: Q01DX009 (sc), vehicle: steriod suspending solution 95 % of control and 103 % of control | dose: 50.0 mg/kg/injection, schedule: Q01DX010 (sc), vehicle: steriod suspending solution 104 % of control | dose: 100.0 mg/kg/injection, schedule: Q01DX009 (sc), vehicle: steriod suspending solution 94 % of control and 107 % of control | dose: 100.0 mg/kg/injection, schedule: Q01DX010 (sc), vehicle: steriod suspending solution 102 % of control | dose: 200.0 mg/kg/injection, schedule: Q01DX009 (sc), vehicle: steriod suspending solution 105 % of control and 113 % of control | dose: 200.0 mg/kg/injection, schedule: Q01DX010 (sc), vehicle: steriod suspending solution 102 % of control

O=c1c(Br)c(-c2ccccc2)nc2ccccn12
inactive: dose: 25.0 mg/kg/injection, schedule: Q01DX001 (ip), vehicle: saline with Tween-80 91 % of control | dose: 50.0 mg/kg/injection, schedule: Q01DX001 (ip), vehicle: saline with Tween-80 91 % of control | dose: 100.0 mg/kg/injection, schedule: Q01DX001 (ip), vehicle: saline with Tween-80 95 % of control

CC(=O)OC1CCC2(C)C(=CC(=O)C3C4CCC(C(C)C)C4CCC32)C1 (stereo not drawn)
inactive: dose: 75.0 mg/kg/injection, schedule: Q01DX009 (sc), vehicle: steriod suspending solution 95 % of control | dose: 75.0 mg/kg/injection, schedule: Q04DX003 (sc), vehicle: steriod suspending solution 94 % of control | dose: 150.0 mg/kg/injection, schedule: Q01DX009 (sc), vehicle: steriod suspending solution 109 % of control | dose: 150.0 mg/kg/injection, schedule: Q04DX003 (sc), vehicle: steriod suspending solution 98 % of control | dose: 300.0 mg/kg/injection, schedule: Q01DX009 (sc), vehicle: steriod suspending solution 108 % of control | dose: 300.0 mg/kg/injection, schedule: Q04DX003 (sc), vehicle: steriod suspending solution 94 % of control

CC1(c2ccsc2)NC(=O)NC1=O (stereo not drawn)
inactive: [1] 93 % of control | dose: 200.0 mg/kg/injection, schedule: Q01DX001 (ip), vehicle: saline 93 % of control | dose: 400.0 mg/kg/injection, schedule: Q01DX001 (ip), vehicle: saline 90 % of control

CCOC(=O)CNC(=O)Oc1ccc2c(C)cc(=O)oc2c1
inactive: dose: 25.0 mg/kg/injection, schedule: Q01DX009 (ip), vehicle: carboxymethylcellulose (CMC) 100 % of control and 106 % of control | dose: 50.0 mg/kg/injection, schedule: Q01DX009 (ip), vehicle: carboxymethylcellulose (CMC) 98 % of control and 100 % of control | dose: 100.0 mg/kg/injection, schedule: Q01DX009 (ip), vehicle: carboxymethylcellulose (CMC) 93 % of control and 97 % of control | dose: 100.0 mg/kg/injection, schedule: Q04DX002 (ip), vehicle: carboxymethylcellulose (CMC) 98 % of control and 102 % of control | dose: 100.0 mg/kg/injection, schedule: Q04DX003 (ip), vehicle: carboxymethylcellulose (CMC) 92 % of control and 90 % of control | dose: 200.0 mg/kg/injection, schedule: Q01DX009 (ip), vehicle: carboxymethylcellulose (CMC) 100 % of control | dose: 200.0 mg/kg/injection, schedule: Q04DX002 (ip), vehicle: carboxymethylcellulose (CMC) 93 % of control and 97 % of control | dose: 200.0 mg/kg/injection, schedule: Q04DX003 (ip), vehicle: carboxymethylcellulose (CMC) 92 % of control and 87 % of control | dose: 400.0 mg/kg/injection, schedule: Q04DX002 (ip), vehicle: carboxymethylcellulose (CMC) 104 % of control and 105 % of control | dose: 400.0 mg/kg/injection, schedule: Q04DX003 (ip), vehicle: carboxymethylcellulose (CMC) 94 % of control and 101 % of control

CCN(CC)CCOc1ccc(/C=C(/C(=O)c2ccccc2)c2ccccc2)cc1
inactive: dose: 100.0 mg/kg/injection, schedule: Q04DX003 (sc), vehicle: olive oil, sesame oil, peanut oil 101 % of control | dose: 200.0 mg/kg/injection, schedule: Q04DX003 (sc), vehicle: olive oil, sesame oil, peanut oil 101 % of control | dose: 400.0 mg/kg/injection, schedule: Q04DX003 (sc), vehicle: olive oil, sesame oil, peanut oil 101 % of control

CS(=O)(=O)OCCN(CCOS(C)(=O)=O)c1ccc(C=Nc2ccc(-c3cnc(-c4ccc(Cl)cc4)s3)cc2)c(Cl)c1
inactive: [2] 98 % of control | [3] 107 % of control | [4] 109 % of control

Clc1nc(Cl)c(Cl)c(C(Cl)(Cl)Cl)n1
inactive: dose: 25.0 mg/kg/injection, schedule: Q01DX009 (ip), vehicle: saline with Tween-80 101 % of control | dose: 50.0 mg/kg/injection, schedule: Q01DX009 (ip), vehicle: saline with Tween-80 92 % of control | dose: 100.0 mg/kg/injection, schedule: Q01DX009 (ip), vehicle: saline with Tween-80 87 % of control | dose: 200.0 mg/kg/injection, schedule: Q01DX009 (ip), vehicle: saline with Tween-80 86 % of control

O=Nc1ccc(O)cc1Cl
inactive: dose: 100.0 mg/kg/injection, schedule: Q01DX001 (ip), vehicle: Klucel (hydroxypropylcellulose) (HPC) 103 % of control and 88 % of control | dose: 200.0 mg/kg/injection, schedule: Q01DX001 (ip), vehicle: Klucel (hydroxypropylcellulose) (HPC) 117 % of control | dose: 400.0 mg/kg/injection, schedule: Q01DX001 (ip), vehicle: Klucel (hydroxypropylcellulose) (HPC) 95 % of control and 103 % of control

Cc1ccc([N+](=O)[O-])cc1NC(=O)NC(=O)c1ccccc1
inactive: [5] 92 % of control | dose: 200.0 mg/kg/injection, schedule: Q04DX002 (ip), vehicle: Klucel (hydroxypropylcellulose) (HPC) 95 % of control | dose: 400.0 mg/kg/injection, schedule: Q04DX002 (ip), vehicle: Klucel (hydroxypropylcellulose) (HPC) 97 % of control

COc1ccc(C(C#N)N(C)C)cc1OC (stereo not drawn)
inactive: dose: 50.0 mg/kg/injection, schedule: Q01DX001 (ip), vehicle: saline 100 % of control | [1] 100 % of control

CN(C)N=Nc1ccc2ncccc2c1[N+](=O)[O-]
inactive: dose: 100.0 mg/kg/injection, schedule: Q01DX001 (ip), vehicle: other 105 % of control | dose: 200.0 mg/kg/injection, schedule: Q01DX001 (ip), vehicle: other 103 % of control

CC(CN(C)C)C(=O)c1ccccc1 (stereo not drawn)
inactive: [2] 106 % of control | dose: 25.0 mg/kg/injection, schedule: Q01DX009 (ip), vehicle: saline 105 % of control and 104 % of control | dose: 25.0 mg/kg/injection, schedule: Q04DX002 (ip), vehicle: saline 104 % of control | dose: 25.0 mg/kg/injection, schedule: Q04DX003 (ip), vehicle: Klucel (hydroxypropylcellulose) (HPC) 91 % of control | dose: 25.0 mg/kg/injection, schedule: Q04DX003 (ip), vehicle: saline 98 % of control | [3] 101 % of control | dose: 50.0 mg/kg/injection, schedule: Q01DX009 (ip), vehicle: saline 110 % of control and 100 % of control | dose: 50.0 mg/kg/injection, schedule: Q04DX002 (ip), vehicle: saline 96 % of control | dose: 50.0 mg/kg/injection, schedule: Q04DX003 (ip), vehicle: Klucel (hydroxypropylcellulose) (HPC) 100 % of control | dose: 50.0 mg/kg/injection, schedule: Q04DX003 (ip), vehicle: saline 88 % of control | [4] 108 % of control | dose: 100.0 mg/kg/injection, schedule: Q01DX009 (ip), vehicle: saline 102 % of control and 96 % of control | dose: 100.0 mg/kg/injection, schedule: Q04DX002 (ip), vehicle: saline 96 % of control | dose: 100.0 mg/kg/injection, schedule: Q04DX003 (ip), vehicle: Klucel (hydroxypropylcellulose) (HPC) 101 % of control and 102 % of control | [6] 96 % of control and 103 % of control

Cc1csc[n+]1C
inactive: dose: 75.0 mg/kg/injection, schedule: Q01DX001 (ip), vehicle: saline 98 % of control | dose: 150.0 mg/kg/injection, schedule: Q01DX001 (ip), vehicle: saline 102 % of control

Brc1cnc(Br)s1
inactive: dose: 44.0 mg/kg/injection, schedule: Q04DX002 (ip), vehicle: Klucel (hydroxypropylcellulose) (HPC) 97 % of control | dose: 67.0 mg/kg/injection, schedule: Q04DX002 (ip), vehicle: Klucel (hydroxypropylcellulose) (HPC) 109 % of control | [5] 116 % of control | dose: 150.0 mg/kg/injection, schedule: Q04DX002 (ip), vehicle: Klucel (hydroxypropylcellulose) (HPC) 113 % of control

O=C1c2ccccc2-c2oc(=O)c3ccccc3c21
inactive: dose: 50.0 mg/kg/injection, schedule: Q01DX001 (ip), vehicle: carboxymethylcellulose (CMC) 96 % of control | dose: 100.0 mg/kg/injection, schedule: Q01DX001 (ip), vehicle: carboxymethylcellulose (CMC) 96 % of control | dose: 200.0 mg/kg/injection, schedule: Q01DX001 (ip), vehicle: carboxymethylcellulose (CMC) 94 % of control | dose: 400.0 mg/kg/injection, schedule: Q01DX001 (ip), vehicle: carboxymethylcellulose (CMC) 96 % of control

O=C1CSC(=S)N1c1ccc2c(c1)OCO2
inactive: [6] 94 % of control | dose: 200.0 mg/kg/injection, schedule: Q04DX003 (ip), vehicle: saline 90 % of control | dose: 400.0 mg/kg/injection, schedule: Q04DX003 (ip), vehicle: saline 95 % of control
